According to PMC6383678 (Biochimica et biophysica acta. Biomembranes, 2019):

Molecular target: A2aR (hA2aR) (Homo sapiens, UniProt P29274)
Experiment: flow cytometry, fluorescent agonist equilibrium binding to HEK293-A2aR cells
Assay type: cell-based

Chain of A2aR (hA2aR) (P29274 whole entry): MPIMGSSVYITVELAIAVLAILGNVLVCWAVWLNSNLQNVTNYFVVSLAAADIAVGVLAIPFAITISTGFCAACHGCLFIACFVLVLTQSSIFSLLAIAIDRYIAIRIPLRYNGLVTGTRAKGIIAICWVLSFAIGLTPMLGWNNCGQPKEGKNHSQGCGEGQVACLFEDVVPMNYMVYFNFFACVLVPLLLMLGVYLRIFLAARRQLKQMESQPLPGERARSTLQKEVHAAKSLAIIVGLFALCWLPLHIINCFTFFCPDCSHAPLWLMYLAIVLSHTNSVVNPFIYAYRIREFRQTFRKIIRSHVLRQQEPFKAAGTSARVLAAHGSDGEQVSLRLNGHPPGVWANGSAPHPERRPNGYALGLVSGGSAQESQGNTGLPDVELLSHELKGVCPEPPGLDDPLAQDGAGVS

For `CCNC(=O)[C@H]1O[C@@H](n2cnc3c(N)nc(NCCc4ccc(CCC(=O)NCCNC(=S)Nc5ccc6c(c5)C(=O)OC65c6ccc(O)cc6Oc6cc(O)ccc65)cc4)nc32)[C@H](O)[C@@H]1O` [FITC-APEC], the equilibrium ligand binding was “equilibrium ligand binding of the fluorescent agonist APEC-FITC was unchanged following cholesterol depletion”.
